Test results taken from patent publication US20180179198A1, “TRICYCLIC MODULATORS OF TNF SIGNALING” (AbbVie Inc., priority 2015, published 2018).

Target: TNFα trimer (Homo sapiens, UniProt P01375)
Assay: TNFα FP Competitive Binding Assay
Conditions: TNFα FP competitive binding assay; class symbols A/B/C; read-out: TNF IC50
Method: TNFα FP Competitive Binding Assay
• 1. Assay Buffer: Prepare 1× Assay Buffer (Water with 47 mM HEPES, 47 mM NaCl, 0.9 mM EDTA, 0.0071% Triton X-100) by adding 25 mL of 1 M HEPES, 5 mL of 5 M NaCl, 1 mL of 0.5 M EDTA, and 375 μL of a 10% Triton X-100 stock to a fresh 500 mL bottle of water. • 2. Assay Mixture: Prepare fresh Assay Mixture containing 20 nM TNFα trimer (60 nM protein) and 1 nM 2′,7′-difluoro-3′,6′-dihydroxy-N-(2-(2-(2-((4-(isoquinolin-8-yl)-3-(4-(isoquinolin-8-yl)phenethoxy)benzyl)oxy)ethoxy)ethoxy)ethyl)-3-oxo-3H-spiro[isobenzofuran-1,9′-xanthene]-5-carboxamide probe in 1× Assay Buffer.
Compound Plate Preparation
Manual 12-point 1:3 Dilution Plates: (384 well polypropylene plates)
Top concentration of compounds, 10 mM in DMSO, dispensed in rows A-O in columns 1 and 13. Compounds are serially diluted 1:3 with DMSO in columns 2-12 or 14-24 using a 16-channel Matrix pipettor. Plates stored at −20° C.
Discovery Preps 12-point 1:3 Dilution Plates: (384 well assay plates)
Top concentration, 5 mM in DMSO, of compounds placed in rows A-O in columns 1 and 13. Compounds are serially diluted 1:3 with DMSO in columns 2-12 or 14-24. Compound solutions are dispensed into replicate assay plates at 410 nL per well. Plates stored at 4° C.
TNFα FP Competitive Binding Assay Protocol
• 1. Compound plates are warmed to rt. • 2. Fresh Assay Mixture is prepared. • 3. Assay Mixture (20 μL) is dispensed each well of 384 assay plates using a Thermo Multidrop Combi or 16-channel Matrix pipettor. If Manual 12-point 1:3 Dilution Plates are to be tested, Assay Mix is dispensed into empty plates. Discovery Preps 12-point 1:3 Dilution Plates already contain 410 nL compound solution in DMSO. • 4. For Manual 12-point 1:3 Dilution Plates, 0.7 μL is manually transferred using a 16-channel Matrix pipettor to replicate assay plates containing 20 μL Assay Mixture for a final top compound concentration of 338 μM (3.4% DMSO). • 5. For Discovery Preps 12-point 1:3 Dilution Plates, 20 μL Assay Mixture added the 410 nL compound solution already in the plates yields a final top compound concentration of 100 μM (2.0% DMSO). • 6. Background subtraction controls are wells P1-P8 containing only Assay Buffer. The low % inhibition controls are wells P9-P16 containing only Assay Mix. The high % inhibition are wells P17-P24 containing only 1 nM 2′,7′-difluoro-3′,6′-dihydroxy-N-(2-(2-(2-((4-(isoquinolin-8-yl)-3-(4-(isoquinolin-8-yl)phenethoxy)benzyl)oxy)ethoxy)ethoxy)ethyl)-3-oxo-3H-spiro[isobenzofuran-1,9′-xanthene]-5-carboxamide probe in 1× Assay Buffer. • 7. Plates are incubated at […] for 18-24 h in 37° C. incubator (CO2 is off). • 8. Prior to reading the assay, the plates are placed in a dark cabinet to equilibrate at rt for one hour. • 9. Background-subtracted fluorescence polarization (mP) is measured using a PerkinElmer Envision plate reader. • 10. Raw data is entered into Assay Explorer and dose-response curves are generated using a variable slope curve.

Chain of TNFα trimer (P01375 77-233 limits assumed): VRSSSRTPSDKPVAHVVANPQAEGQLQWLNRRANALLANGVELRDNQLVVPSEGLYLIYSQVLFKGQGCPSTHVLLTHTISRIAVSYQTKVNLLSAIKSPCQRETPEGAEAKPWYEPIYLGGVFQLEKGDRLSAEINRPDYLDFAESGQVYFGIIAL

SMILES | IC50 [nM]
COc1ccccc1C1CCCc2nc3ccc(-c4cnc(N5CCC(F)(CO)CC5)nc4)cn3c21 (centres unmarked) [AJ.3] | < 1000
COc1ccccc1C1CCCc2nc3ccc(-c4cnc(N5CCC(O)C(F)(F)C5)nc4)cn3c21 (centres unmarked) [AJ.4] | < 1000
COc1ccccc1C1CCCc2nc3ccc(-c4cnc(N5CCC(C)(O)CC5)nc4)cn3c21 (centres unmarked) [AJ.5] | < 1000
COc1ccccc1C1CCCc2nc3ccc(-c4cnc(N5CCN6C(=O)NCC6C5)nc4)cn3c21 (centres unmarked) [AJ.6] | < 1000
COc1ccccc1C1CCCc2nc3ccc(-c4cnc(N5CCCOCC5)nc4)cn3c21 (centres unmarked) [AJ.7] | < 1000
COc1ccccc1C1CCCc2nc3ccc(-c4cnc(N5CCC6(CC5)CC(O)C6)nc4)cn3c21 (centres unmarked) [AJ.8] | < 1000
OC[C@@H]1CCCN1c1ncc(-c2ccc3nc4n(c3n2)[C@@H](c2ccccc2)CC4)cn1 [AK.1] | 1000 to 10000
CS(=O)(=O)CCn1ccc(-c2ccc3nc4n(c3n2)[C@@H](c2ccccc2)CC4)cc1=O [AK.2] | 10000 to 100000
CC(C)(O)Cn1ccc(-c2ccc3nc4n(c3n2)[C@@H](c2ccccc2)CC4)cc1=O [AK.3] | 10000 to 100000
CC(O)c1ncc(-c2ccc3nc4n(c3n2)[C@@H](c2ccccc2)CC4)cn1 (some centres unmarked) [AL.1] | 1000 to 10000
OC(CC1CC1)c1ncc(-c2ccc3nc4n(c3n2)[C@@H](c2ccccc2)CC4)cn1 (some centres unmarked) [AL.2] | 1000 to 10000
OC(c1ncc(-c2ccc3nc4n(c3n2)[C@@H](c2ccccc2)CC4)cn1)C1CCOCC1 (some centres unmarked) [AL.3] | 1000 to 10000
CC(O)(c1ncc(-c2ccc3nc4n(c3n2)[C@@H](c2ccccc2)CC4)cn1)C1CCOCC1 (some centres unmarked) [AL.4] | 1000 to 10000
CC(O)(CC1CC1)c1ncc(-c2ccc3nc4n(c3n2)[C@@H](c2ccccc2)CC4)cn1 (some centres unmarked) [AL.5] | 1000 to 10000
COc1cccc([C@H]2CCc3nc4ccc(-c5cnc(N6CCN7C(=O)NC[C@@H]7C6)nc5)nc4n32)c1 [AM.1] | < 1000
COc1cccc([C@H]2CCc3nc4ccc(-c5cnc(N6CCN(C(C)=O)[C@H](C)C6)nc5)nc4n32)c1 [AM.2, 1-((R)-4-(5-((R)-8-(3-methoxyphenyl)-7,8-dihydro-6H-pyrrolo[2′,1′:2,3]imidazo[4,5-b]pyridin-2-yl)pyrimidin-2-yl)-2-methylpiperazin-1-yl)ethanone] | < 1000
COc1cccc([C@@H]2CCc3nc4ccc(-c5cnc(N6CCN7C(=O)NC[C@@H]7C6)nc5)nc4n32)c1 [AN.1] | 10000 to 100000
COc1ccccc1[C@H]1CCc2nc3ccc(-c4cnc(N5CCN6C(=O)NC[C@@H]6C5)nc4)nc3n21 [AO.1] | < 1000
COc1ccccc1[C@H]1CCc2nc3ccc(-c4cnc(N5CCN6C(=O)NC[C@H]6C5)nc4)nc3n21 [AO.2] | < 1000
COc1ccccc1[C@H]1CCc2nc3ccc(-c4cnc(N5CCC(O)CC5)nc4)nc3n21 [AO.3] | < 1000

SMILES | IC50 [nM]
COc1ccccc1[C@H]1CCc2nc3ccc(-c4cnc(N5CCN(C(=O)CO)[C@H](C)C5)nc4)nc3n21 [AO.4] | < 1000
COc1ccccc1[C@@H]1CCc2nc3ccc(-c4cnc(N5CCN6C(=O)NC[C@@H]6C5)nc4)nc3n21 [AP.1] | 1000 to 10000
OC1CCC(Oc2cc(-c3ccc4nc5n(c4n3)[C@@H](c3ccccc3)CC5)ccn2)C1 (some centres unmarked) [AQ.1] | < 1000
OC1CCC(Oc2cc(-c3ccc4nc5n(c4n3)[C@@H](c3ccccc3)CC5)ccn2)CC1 (some centres unmarked) [AQ.2] | < 1000
c1ccc([C@H]2CCc3nc4ccc(-c5ccnc(OC6COC6)c5)nc4n32)cc1 [AQ.3] | 1000 to 10000
OC1CCCC(Oc2cc(-c3ccc4nc5n(c4n3)[C@@H](c3ccccc3)CC5)ccn2)C1 (some centres unmarked) [AQ.4] | 1000 to 10000
c1ccc([C@H]2CCc3nc4ccc(-c5ccnc(OCC6COC6)c5)nc4n32)cc1 [AQ.5] | 1000 to 10000
CN1CC[C@@H](Oc2cc(-c3ccc4nc5n(c4n3)[C@@H](c3ccccc3)CC5)ccn2)C1 [AQ.6] | 1000 to 10000
OCCOc1cc(-c2ccc3nc4n(c3n2)[C@@H](c2ccccc2)CC4)ccn1 [AQ.7] | 1000 to 10000
CN1CC[C@H](Oc2cc(-c3ccc4nc5n(c4n3)[C@@H](c3ccccc3)CC5)ccn2)C1 [AQ.8] | 1000 to 10000
O[C@H]1CC[C@@H](Oc2cc(-c3ccc4nc5n(c4n3)[C@@H](c3ccccc3)CC5)ccn2)CC1 [AR.1] | 1000 to 10000
c1ccc([C@H]2CCc3nc4ccc(-c5ccnc(OC6CCOC6)c5)nc4n32)cc1 (some centres unmarked) [AS.1] | 1000 to 10000
c1ccc([C@H]2CCc3nc4ccc(-c5ccnc(OC6CCCC6)c5)nc4n32)cc1 [AS.2] | 1000 to 10000
c1ccc([C@H]2CCc3nc4ccc(-c5ccnc(OC6CCCCC6)c5)nc4n32)cc1 [AS.3] | 1000 to 10000
COC(=O)C1CCC(Oc2cc(-c3ccc4nc5n(c4n3)[C@@H](c3ccccc3)CC5)ccn2)CC1 (some centres unmarked) [AS.4] | 1000 to 10000
COC(=O)C1CCC(Oc2cc(-c3ccc4nc5n(c4n3)[C@@H](c3ccccc3)CC5)ccn2)C1 (some centres unmarked) [AS.5] | 1000 to 10000
N#C[C@@H]1CC[C@@H](Oc2cc(-c3ccc4nc5n(c4n3)[C@@H](c3ccccc3)CC5)ccn2)C1 [AS.7] | 1000 to 10000
c1ccc([C@H]2CCc3nc4ccc(-c5ccnc(OC6CCCNC6)c5)nc4n32)cc1 (some centres unmarked) [AT.1] | 1000 to 10000
c1ccc([C@H]2CCc3nc4ccc(-c5ccnc(O[C@@H]6CCNC6)c5)nc4n32)cc1 [AT.2] | 1000 to 10000
c1ccc([C@H]2CCc3nc4ccc(-c5ccnc(OC6CCC67CCNC7)c5)nc4n32)cc1 (some centres unmarked) [AT.3] | 1000 to 10000

Other lines, results leading:

IC50 [nM] | SMILES
< 1000 | O=C1CN(c2ncc(-c3ccc4nc5n(c4n3)[C@@H](c3ccccc3)COC5)cn2)CCN1 [AB.3]
< 1000 | OC1CCN(c2ncc(-c3ccc4nc5n(c4n3)[C@@H](c3ccccc3)COC5)cn2)CC1 [AB.4]
< 1000 | O=C1NCN2CCN(c3ncc(-c4ccc5nc6n(c5n4)[C@@H](c4ccccc4)COC6)cn3)CC12 (some centres unmarked) [AB.5]
< 1000 | COc1ccccc1[C@H]1COCc2nc3ccc(-c4cnc(N5CCC(O)CC5)nc4)nc3n21 [AC.1]
< 1000 | COc1ccccc1C1CCc2nc3ccc(-c4cnc(N5CCC(O)CC5)nc4)nc3n21 (centres unmarked) [AD.1]
< 1000 | COc1ccccc1C1CCc2nc3ccc(-c4cnc(N5CCN6C(=O)NCC6C5)nc4)nc3n21 (centres unmarked) [AD.2]
< 1000 | COc1ccccc1C1CCCc2nc3ccc(-c4cnc(N5CCC(O)CC5)nc4)nc3n21 (centres unmarked) [AE.1]
< 1000 | O=C1NC[C@@H]2CN(c3ncc(-c4ccc5nc6c(n5c4)[C@@H](c4ccccc4)COC6)cn3)CCN12 [AF.1]
< 1000 | O=C1NC[C@@H]2CN(c3ncc(-c4ccc5nc6c(n5n4)[C@@H](c4ccccc4)COC6)cn3)CCN12 [AF.2]
< 1000 | COc1ccccc1C1CCc2nc3ccc(-c4cnc(N5CCOCC5)nc4)cn3c21 (centres unmarked) [AG.1]
< 1000 | O=C1NCC2CN(c3ncc(-c4ccc5nc6n(c5c4)C(c4ccccc4F)COC6)cn3)CCN12 (centres unmarked) [AH.1]
< 1000 | O=C1NCC2CN(c3ncc(-c4ccc5nc6n(c5c4)C(c4cccc(Cl)c4)COC6)cn3)CCN12 (centres unmarked) [AH.2]
< 1000 | O=C1NCC2CN(c3ncc(-c4ccc5nc6n(c5c4)[C@@H](c4ccccc4Cl)COC6)cn3)CCN12 (some centres unmarked) [AH.3]
< 1000 | O=C1NCC2CN(c3ncc(-c4ccc5nc6n(c5c4)C(c4cccc(C(F)(F)F)c4)COC6)cn3)CCN12 (centres unmarked) [AH.4]
< 1000 | O=C1NCC2CN(c3ncc(-c4ccc5nc6n(c5n4)[C@@H](C4CCCCC4)CC6)cn3)CCN12 (some centres unmarked) [AH.5]
< 1000 | O=C1NCC2CN(c3ncc(-c4ccc5nc6n(c5n4)C(C4CCCCC4)CC6)cn3)CCN12 (centres unmarked) [AH.6]
< 1000 | O=C1NCC2CN(c3ncc(-c4ccc5nc6n(c5n4)C(c4ccccc4F)COC6)cn3)CCN12 (centres unmarked) [AH.7]
< 1000 | O=C1NCC2CN(c3ncc(-c4ccc5nc6n(c5n4)C(c4cccc(F)c4)COC6)cn3)CCN12 (centres unmarked) [AH.8]
< 1000 | CC1(c2ccccc2)CCc2nc3ccc(-c4cnc(N5CCN6C(=O)NCC6C5)nc4)nc3n21 (centres unmarked) [AH.9]
< 1000 | OC1CCN(c2ncc(-c3ccc4nc5n(c4n3)C(c3cccc(F)c3)COC5)cn2)CC1 (centres unmarked) [AI.1]
< 1000 | COc1ccccc1C1CCCc2nc3ccc(-c4cnc(N5CCC(O)CC5)nc4)cn3c21 (centres unmarked) [AJ.1]
< 1000 | COc1ccccc1C1CCCc2nc3ccc(-c4cnc(N5CCCC(O)CC5)nc4)cn3c21 (centres unmarked) [AJ.2]
